Measurements as given in patent US9023789B2, “Amylin analogs and pharmaceutical compositions thereof” (Novo Nordisk A/S, priority 2012, dated 2015).
Numbered stars: 1 amine (or outer) side, 2 acyl side, 3 side chain; on linkers, the order of the positions; unused ones are H or OH. Bridge positions count the residues as written; N and C are the ends. Side chains are listed from the residue outwards. Peptide text beside a SMILES is read from it. * marks the point of attachment. C20 diacid = O=C(O)CCCCCCCCCCCCCCCCCCC(=O)*; γGlu = O=C(O)[C@H](CCC(=O)[*:2])N[*:1]

Tests used:
[1] = ASSAY (III) ThT fibrillation assay for physical stability; format: physicochemical
How it was run: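 Formulations with 1 μM ThT, pH adjusted as required, incubated at 37 °C with 960 rpm orbital shaking; fluorescence (ex 444/em 485 nm) read every 20 min. Fibrillation reported as mean ThT fluorescence ± SD of 4–8 replicates at time points; polypeptide concentration measured by reverse-phase HPLC before and after, post-centrifugation.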

[2] = target: T1, rat amylin receptor (rat calcitonin receptor + rat RAMP 3) (Rattus norvegicus, UniProt P32214+Q9JJ73); assay: ASSAY (VI) binding to the rat amylin receptor; conditions: for IC50: binding to rat amylin receptor, read-out: rAmylin-R bind IC50
T1 construct: expressed in transfected cells; host or cells: BHK tk'ts 13 (transient, FuGENE 6), membranes
T1 sequence (P32214 25-479 isoform P32214-2 limits assumed): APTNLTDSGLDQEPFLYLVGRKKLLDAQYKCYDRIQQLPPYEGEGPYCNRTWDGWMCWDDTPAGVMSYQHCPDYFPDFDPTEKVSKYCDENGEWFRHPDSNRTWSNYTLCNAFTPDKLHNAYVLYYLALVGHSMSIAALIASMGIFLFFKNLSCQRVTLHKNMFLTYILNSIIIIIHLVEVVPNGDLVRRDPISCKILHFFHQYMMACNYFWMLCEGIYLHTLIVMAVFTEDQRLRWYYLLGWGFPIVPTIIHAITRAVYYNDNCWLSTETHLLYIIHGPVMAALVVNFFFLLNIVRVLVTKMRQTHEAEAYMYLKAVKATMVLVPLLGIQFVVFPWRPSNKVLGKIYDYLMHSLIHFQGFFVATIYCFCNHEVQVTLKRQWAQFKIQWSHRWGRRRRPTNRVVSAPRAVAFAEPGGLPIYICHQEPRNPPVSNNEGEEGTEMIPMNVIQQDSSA
T1 sequence (Q9JJ73 23-147 partner): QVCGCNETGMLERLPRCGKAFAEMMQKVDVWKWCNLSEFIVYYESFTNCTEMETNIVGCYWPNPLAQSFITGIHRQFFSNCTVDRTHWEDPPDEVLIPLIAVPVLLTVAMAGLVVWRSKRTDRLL
How it was run: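 This assay measured binding to the rat amylin receptor. BHK tk′ts 13 cells were transiently transfected with the rat calcitonin receptor using FuGENE® 6 (Roche), following the manufacturer's recommendations. About 48 hours after transfection, the cells were harvested and membranes were prepared from them for the binding determination.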

[3] = Table 7, rat binding selectivity, rCTR IC50 / rAmylin-R IC50
[4] = Table 7a (preferred compounds), rat binding selectivity, rCTR IC50 / rAmylin-R IC50
[5] = ratio of rCTR bind IC50 to rAmylin-R bind IC50

SMILES	ThT pH 4.0 lag time (h) [1]	IC50 ([2]; Table 7)	Ratio rCT/rAmylin binding [2, 3]	Ratio rCT/rAmylin binding [2, 4]	Ratio rCT/rAmylin binding [2, 5]
CC[C@H](C)[C@H](NC(=O)[C@H](C)NC(=O)CNC(=O)[C@H](Cc1ccccc1)NC(=O)[C@H](CC(N)=O)NC(=O)[C@@H]1CCCN1C(=O)[C@H](CO)NC(=O)[C@H](CO)NC(=O)[C@H](Cc1c[nH]cn1)NC(=O)[C@H](CCCNC(=N)N)NC(=O)[C@H](CC(C)C)NC(=O)[C@H](Cc1ccccc1)NC(=O)[C@H](CC(N)=O)NC(=O)[C@H](C)NC(=O)[C@H](CC(C)C)NC(=O)[C@H](CCCNC(=N)N)NC(=O)[C@H](CCC(N)=O)NC(=O)[C@@H](NC(=O)[C@H](C)NC(=O)[C@@H]1CSSC[C@H](NC(=O)[C@@H](N)CCCCNC(=O)CC[C@H](NC(=O)CCCCCCCCCCCCCCC(=O)O)C(=O)O)C(=O)N[C@@H](CC(N)=O)C(=O)N[C@@H]([C@@H](C)O)C(=O)N[C@@H](C)C(=O)N[C@@H]([C@@H](C)O)C(=O)N1)[C@@H](C)O)C(=O)N1CCC[C@H]1C(=O)N[C@@H](CO)C(=O)N[C@@H](CO)C(=O)N[C@H](C(=O)N[C@@H](CC(N)=O)C(=O)N[C@H](C(=O)NCC(=O)N[C@@H](Cc1c[nH]cn1)C(=O)N[C@@H](CC(N)=O)C(=O)N[C@H](C(=O)N[C@@H](Cc1ccc(O)cc1)C(N)=O)[C@@H](C)O)C(C)C)[C@@H](C)O [Example 111]	10 h	1.24 nM	326.8	326.8	326.8
CC[C@H](C)[C@H](NC(=O)[C@H](C)NC(=O)CNC(=O)[C@H](Cc1ccccc1)NC(=O)[C@H](CC(N)=O)NC(=O)[C@@H]1CCCN1C(=O)[C@H](CO)NC(=O)[C@H](CO)NC(=O)[C@H](Cc1c[nH]cn1)NC(=O)[C@H](CCCNC(=N)N)NC(=O)[C@H](CC(C)C)NC(=O)[C@H](Cc1ccccc1)NC(=O)[C@H](CC(N)=O)NC(=O)[C@H](C)NC(=O)[C@H](CC(C)C)NC(=O)[C@H](CCCNC(=N)N)NC(=O)[C@H](CCC(N)=O)NC(=O)[C@@H](NC(=O)[C@H](C)NC(=O)[C@@H]1CSSC[C@H](NC(=O)[C@@H](N)CCCCNC(=O)CC[C@H](NC(=O)CCCCCCCCCCCCC(=O)O)C(=O)O)C(=O)N[C@@H](CC(N)=O)C(=O)N[C@@H]([C@@H](C)O)C(=O)N[C@@H](C)C(=O)N[C@@H]([C@@H](C)O)C(=O)N1)[C@@H](C)O)C(=O)N1CCC[C@H]1C(=O)N[C@@H](CO)C(=O)N[C@@H](CO)C(=O)N[C@H](C(=O)N[C@@H](CC(N)=O)C(=O)N[C@H](C(=O)NCC(=O)N[C@@H](Cc1c[nH]cn1)C(=O)N[C@@H](CC(N)=O)C(=O)N[C@H](C(=O)N[C@@H](Cc1ccc(O)cc1)C(N)=O)[C@@H](C)O)C(C)C)[C@@H](C)O [Example 112]	30 h	2.52 nM	280.1	280.1	280.1
CC[C@H](C)[C@H](NC(=O)[C@H](C)NC(=O)CNC(=O)[C@H](Cc1ccccc1)NC(=O)[C@H](CC(N)=O)NC(=O)[C@@H]1CCCN1C(=O)[C@H](CO)NC(=O)[C@H](CO)NC(=O)[C@H](Cc1c[nH]cn1)NC(=O)[C@H](CCCNC(=N)N)NC(=O)[C@H](CC(C)C)NC(=O)[C@H](Cc1ccccc1)NC(=O)[C@H](CC(N)=O)NC(=O)[C@H](C)NC(=O)[C@H](CC(C)C)NC(=O)[C@H](CCCNC(=N)N)NC(=O)[C@H](CCC(N)=O)NC(=O)[C@@H](NC(=O)[C@H](C)NC(=O)[C@@H]1CSSC[C@H](NC(=O)[C@@H](N)CCCCNC(=O)CC[C@H](NC(=O)CCCCCCCCCCCCCCCCC(=O)O)C(=O)O)C(=O)N[C@@H](CC(N)=O)C(=O)N[C@@H]([C@@H](C)O)C(=O)N[C@@H](C)C(=O)N[C@@H]([C@@H](C)O)C(=O)N1)[C@@H](C)O)C(=O)N1CCC[C@H]1C(=O)N[C@@H](CO)C(=O)N[C@@H](CO)C(=O)N[C@H](C(=O)N[C@@H](CC(N)=O)C(=O)N[C@H](C(=O)NCC(=O)N[C@@H](Cc1c[nH]cn1)C(=O)N[C@@H](CC(N)=O)C(=O)N[C@H](C(=O)N[C@@H](Cc1ccc(O)cc1)C(N)=O)[C@@H](C)O)C(C)C)[C@@H](C)O [Example 113]	45 h	1.17 nM	40.3	40.3	40.3
CC[C@H](C)[C@H](NC(=O)[C@H](C)NC(=O)CNC(=O)[C@H](Cc1ccccc1)NC(=O)[C@H](CC(N)=O)NC(=O)[C@@H]1CCCN1C(=O)[C@H](CO)NC(=O)[C@H](CO)NC(=O)[C@H](Cc1c[nH]cn1)NC(=O)[C@H](CCCNC(=N)N)NC(=O)[C@H](CC(C)C)NC(=O)[C@H](Cc1ccccc1)NC(=O)[C@H](CCC(=O)O)NC(=O)[C@H](C)NC(=O)[C@H](CC(C)C)NC(=O)[C@H](CCCNC(=N)N)NC(=O)[C@H](CCC(N)=O)NC(=O)[C@@H](NC(=O)[C@H](C)NC(=O)[C@@H]1CSSC[C@H](NC(=O)[C@@H](N)CCCCNC(=O)CC[C@H](NC(=O)CCCCCCCCCCCCCCCCCCC(=O)O)C(=O)O)C(=O)N[C@@H](CC(N)=O)C(=O)N[C@@H]([C@@H](C)O)C(=O)N[C@@H](C)C(=O)N[C@@H]([C@@H](C)O)C(=O)N1)[C@@H](C)O)C(=O)N1CCC[C@H]1C(=O)N[C@@H](CO)C(=O)N[C@@H](CO)C(=O)N[C@H](C(=O)N[C@@H](CC(N)=O)C(=O)N[C@H](C(=O)NCC(=O)N1CCC[C@H]1C(=O)N[C@@H](CC(N)=O)C(=O)N[C@H](C(=O)N1CCC[C@H]1C(N)=O)[C@@H](C)O)C(C)C)[C@@H](C)O [Example 114] (H-K([γGlu-C20 diacid])CNTATCATQRLAEFLRHSSPNFGAIPSSTNVGPNTP-NH2; disulfide 2-7 (inferred); N-terminus assumed)	45 h	–	1.1	–	–
CC[C@H](C)[C@H](NC(=O)[C@H](C)NC(=O)CNC(=O)[C@H](Cc1ccccc1)NC(=O)[C@H](CC(N)=O)NC(=O)[C@@H]1CCCN1C(=O)[C@H](CO)NC(=O)[C@H](CO)NC(=O)[C@H](Cc1c[nH]cn1)NC(=O)[C@H](CCCNC(=N)N)NC(=O)[C@H](CC(C)C)NC(=O)[C@H](Cc1ccccc1)NC(=O)[C@H](Cc1c[nH]cn1)NC(=O)[C@H](C)NC(=O)[C@H](CC(C)C)NC(=O)[C@H](CCCNC(=N)N)NC(=O)[C@H](CCC(N)=O)NC(=O)[C@@H](NC(=O)[C@H](C)NC(=O)[C@@H]1CSSC[C@H](NC(=O)[C@@H](N)CCCCNC(=O)CC[C@H](NC(=O)CCCCCCCCCCCCCCCCCCC(=O)O)C(=O)O)C(=O)N[C@@H](CC(N)=O)C(=O)N[C@@H]([C@@H](C)O)C(=O)N[C@@H](C)C(=O)N[C@@H]([C@@H](C)O)C(=O)N1)[C@@H](C)O)C(=O)N1CCC[C@H]1C(=O)N[C@@H](CO)C(=O)N[C@@H](CO)C(=O)N[C@H](C(=O)N[C@@H](CC(N)=O)C(=O)N[C@H](C(=O)NCC(=O)N1CCC[C@H]1C(=O)N[C@@H](CC(N)=O)C(=O)N[C@H](C(=O)N1CCC[C@H]1C(N)=O)[C@@H](C)O)C(C)C)[C@@H](C)O [Example 115] (H-K([γGlu-C20 diacid])CNTATCATQRLAHFLRHSSPNFGAIPSSTNVGPNTP-NH2; disulfide 2-7 (inferred); N-terminus assumed)	45 h	0.125 nM	3.0	–	–
CC[C@H](C)[C@H](NC(=O)[C@H](C)NC(=O)CNC(=O)[C@H](Cc1ccccc1)NC(=O)[C@H](CC(N)=O)NC(=O)[C@@H]1CCCN1C(=O)[C@H](CO)NC(=O)[C@H](CO)NC(=O)[C@H](Cc1c[nH]cn1)NC(=O)[C@H](CCCNC(=N)N)NC(=O)[C@H](CC(C)C)NC(=O)[C@H](Cc1ccccc1)NC(=O)[C@H](Cc1c[nH]cn1)NC(=O)[C@H](C)NC(=O)[C@H](CC(C)C)NC(=O)[C@H](CCCNC(=N)N)NC(=O)[C@H](CCC(N)=O)NC(=O)[C@@H](NC(=O)[C@H](C)NC(=O)[C@@H]1CSSC[C@H](NC(=O)[C@@H](N)CCCCNC(=O)CC[C@H](NC(=O)CCCCCCCCCCCCCCCCCCC(=O)O)C(=O)O)C(=O)N[C@@H](CC(N)=O)C(=O)N[C@@H]([C@@H](C)O)C(=O)N[C@@H](C)C(=O)N[C@@H]([C@@H](C)O)C(=O)N1)[C@@H](C)O)C(=O)N1CCC[C@H]1C(=O)N[C@@H](CO)C(=O)N[C@@H](CO)C(=O)N[C@H](C(=O)N1CCC[C@H]1C(=O)N[C@H](C(=O)NCC(=O)N1CCC[C@H]1C(=O)N[C@@H](CC(N)=O)C(=O)N[C@H](C(=O)N[C@@H](Cc1ccc(O)cc1)C(N)=O)[C@@H](C)O)C(C)C)[C@@H](C)O [Example 116] (H-K([γGlu-C20 diacid])CNTATCATQRLAHFLRHSSPNFGAIPSSTPVGPNTY-NH2; disulfide 2-7)	45 h	0.125 nM	72.4	72.4	72.4
